Drawing on ChEMBL document CHEMBL5537197, “Discovery of Novel Coumarin-quinolinium Derivatives as Pan-KRAS Translation Inhibitors by Targeting 5'-UTR RNA G-Quadruplexes” (J Med Chem, 2024), this text covers Activity, IC50 and inhibition for 15 compounds.

The structures appear in SMILES notation. Calls of active or inactive are those of the source. The rule behind the calls is not given here.

The subject of series [1] is MIA PaCa-2. The series can be described thus: In vivo inhibition of KRAS in human MIA PaCa-2 cells xenografted in BALB/C-nu/nu mouse model at 2.5 mg/kg,ip everyday for 18 days by IHC analysis. The format is functional, organism-based. The note with it: time 18.0 day. For orientation: Xenograft models place foreign cells or tissue in a host animal.
The subject of series [2] is MIA PaCa-2. The series can be described thus: Cytotoxicity against human MIA PaCa-2 cells harboring KRAS G12C mutant assessed as cell growth inhibition incubated for 24 hrs by MTT assay. Type of series: functional, cell-based. The note with it: MIA PaCa-2, 24 h. (In general: Formazan colour is commonly taken as a measure of viable cells.)
In a further series the test system is PANC-1. The series can be described thus: Cytotoxicity against human PANC-1 cells harboring KRAS G12D mutant assessed as cell growth inhibition incubated for 24 hrs by MTT assay. Type of series: functional, cell-based. The conditions noted are these: PANC-1, 24 h.
The test system of another series is NCM460. The experiment in a line: Cytotoxicity against human NCM460 cells harboring wild-type KRAS assessed as cell growth inhibition incubated for 24 hrs by MTT assay. The note with it: NCM460, 24 h. Type of series: functional, cell-based.
The nature of series [3]: Cytotoxicity against human PANC-1 cells […] assessed as cell growth inhibition incubated for 24 hrs by MTT assay. Type of series: functional, cell-based. The conditions noted are these: PANC-1, 24 h.
For series [4], the target named is GTPase KRas (Homo sapiens) (UniProt P01116). The series can be described thus: Inhibition of KRAS in human MIA PaCa-2 cells at 2.5 uM incubated for 24 hrs by Western blot analysis. Type of series: cell-based.
The target is the same in series [5]. The series can be described thus: Inhibition of KRAS in human PANC-1 cells at 2.5 uM incubated for 24 hrs by Western blot analysis. Type of series: cell-based.
Series [6] can be described thus: Cytotoxicity against human HFL1 cells harboring wild-type KRAS assessed as cell growth inhibition incubated for 24 hrs by MTT assay. The format is toxicity, cell-based.
For series [7], the target named is GTPase KRas (Homo sapiens) (UniProt P01116). The series can be described thus: Inhibition of KRAS in human MIA PaCa-2 cells at >5 uM incubated for 24 hrs by Western blot analysis. Type of series: cell-based. A general note: Immunoblotting shows a protein as a band on a membrane.
In the next series the test system is SW-620. The series can be described thus: Cytotoxicity against human SW620 cells harboring KRAS G12V mutant assessed as cell growth inhibition incubated for 24 hrs by MTT assay. Type of series: functional, cell-based. The conditions noted are these: SW-620, 24 h.
The test system of a further series is U-87 MG. The experiment in a line: Cytotoxicity against human U-87 MG cells harboring wild-type KRAS assessed as cell growth inhibition incubated for 24 hrs by MTT assay. The format is functional, cell-based, U-87MG ATCC.
A further series deals with HCT-116. The series can be described thus: Cytotoxicity against human HCT-116 cells harboring KRAS G13D mutant assessed as cell growth inhibition incubated for 24 hrs by MTT assay. The format is functional, cell-based. The note with it: HCT-116, 24 h.
The test system of another series is NCI-H358. The experiment in a line: Cytotoxicity against human NCI-H358 cells harboring KRAS G12C mutant assessed as cell growth inhibition incubated for 24 hrs by MTT assay. The conditions noted are these: NCI-H358, 24 h. The format is functional, cell-based.
Series [8] is described as follows: Cytotoxicity against human LX2 cells harboring wild-type KRAS assessed as cell growth inhibition incubated for 24 hrs by MTT assay. Type of series: toxicity, cell-based, LX-2.
The target in series [9] is GTPase KRas (Homo sapiens) (UniProt P01116). The experiment in a line: Inhibition of KRAS in human PANC-1 cells at >5 uM incubated for 24 hrs by Western blot analysis. Type of series: cell-based.
A further series deals with HPAF-II. The experiment in a line: Cytotoxicity against human HPAF-II cells harboring KRAS G12D mutant assessed as cell growth inhibition incubated for 24 hrs by MTT assay. Type of series: functional, cell-based.

Sequence of GTPase KRas (Homo sapiens) (P01116 whole entry, looked up): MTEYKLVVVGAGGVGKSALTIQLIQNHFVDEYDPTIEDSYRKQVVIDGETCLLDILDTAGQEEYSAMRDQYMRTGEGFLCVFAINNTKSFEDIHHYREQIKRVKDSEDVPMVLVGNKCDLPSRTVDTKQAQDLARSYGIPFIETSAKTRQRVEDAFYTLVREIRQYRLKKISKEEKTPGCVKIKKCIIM

The IC50 is the concentration that inhibits the measured activity by half. With `C=CC(=O)N1CCN(c2nc(=O)n(-c3c(C)ccnc3C(C)C)c3nc(-c4c(O)cccc4F)c(F)cc23)[C@@H](C)C1` [SOTORASIB], in the series with MIA PaCa-2 [1], the result was inactive. For the same compound, the IC50 (in the series on MIA PaCa-2 [2]; in the series on PANC-1; in the series with NCM460; in [3]) was greater than 40 µM each time.

Consider `CCN(CC)c1ccc2cc(/C=C/c3ccc4cc(F)c(NCCCN(C)C)cc4[n+]3C)c(=O)oc2c1`, for which the IC50 in the series with MIA PaCa-2 [2] is 8.6 µM; in the series on PANC-1, 9 µM; in the series with NCM460, greater than 40 µM; in series [3] it was greater than 40 µM. Moreover, the inhibition result in series [4] and in [5] was “Active” throughout.

As for `CCCCN(CCCC)CCCn1cc(CNc2cc3c(cc2F)c(N2CCN(C)CC2)cc(/C=C/c2cc4ccc(N(CC)CC)cc4oc2=O)[n+]3C)nn1`, the IC50 is 5.9 µM in the series on MIA PaCa-2 [2], 8.8 µM in the series with PANC-1, greater than 40 µM in the series on NCM460 and greater than 40 µM in [3]. For the same compound, the inhibition entry in series [4] and in series [5] was “Active” in each case.

For `CCN(CC)c1ccc2cc(/C=C/c3ccc4cc(F)c(NCCCN5CCOCC5)cc4[n+]3C)c(=O)oc2c1`, the IC50 was 4.2 µM in the series on MIA PaCa-2 [2], 6 µM in the series on PANC-1, greater than 40 µM with NCM460 and greater than 40 µM in [3]. Also, the inhibition entry in series [4] and in series [5] was “Active” each time.

Consider `CCN(CC)c1ccc2cc(/C=C/c3ccc4cc(F)c(NCCCN5CCCC5)cc4[n+]3C)c(=O)oc2c1`, for which the IC50 in the series with MIA PaCa-2 [2] is 7.8 µM; in the series on PANC-1 it was 11.8 µM; with NCM460, greater than 40 µM; in [3] it was greater than 40 µM. Also, the inhibition result in series [4] and in [5] was “Active” throughout.

Regarding `CCN(CC)c1ccc2cc(/C=C/c3ccc4cc(F)c(NCCN5CCCCC5)cc4[n+]3C)c(=O)oc2c1`, the IC50 in the series on MIA PaCa-2 [2] is 43 µM; in the series on PANC-1, 5.8 µM; in the series on NCM460, greater than 40 µM; in [3], greater than 40 µM. Further, the inhibition result in series [4] and in series [5] was “Active” each time.

On to `CCN(CC)c1ccc2cc(/C=C/c3cc(N4CCCN(C)CC4)c4cc(F)c(N5CCCN(C)CC5)cc4[n+]3C)c(=O)oc2c1`, for which the IC50 with MIA PaCa-2 [2] was 10 µM; in the series with PANC-1 it was 11.5 µM; with NCM460, greater than 40 µM; in series [3] it was greater than 40 µM. Also, the inhibition entry in [4] and in [5] was “Active” in each case.

Take `CCN(CC)CCCNc1cc2c(ccc(/C=C/c3cc4ccc(N(CC)CC)cc4oc3=O)[n+]2C)cc1F`: the IC50 in the series with MIA PaCa-2 [2] is 7.7 µM; in the series with PANC-1 it was 7.2 µM; in the series on NCM460 it was greater than 40 µM; in series [3], greater than 40 µM. The inhibition entry in [4] and in series [5] was “Active” in each case.

Regarding `CCN(CC)c1ccc2cc(/C=C/c3cc(N4CCN(C)CC4)c4cc(F)c(NCc5cn(CCc6cccs6)nn5)cc4[n+]3C)c(=O)oc2c1`, the IC50 is 9 µM with MIA PaCa-2 [2], 19.2 µM with PANC-1, greater than 40 µM in the series with NCM460 and greater than 40 µM in [3].

In the case of `CCN(CC)c1ccc2cc(/C=C/c3cc(N4CCN(C)CC4)c4cc(F)c(N5CCN(C)CC5)cc4[n+]3C)c(=O)oc2c1`, the IC50 was 16 µM in the series with MIA PaCa-2 [2], 26.4 µM in the series with PANC-1, greater than 40 µM in the series with NCM460 and greater than 40 µM in series [3].

With `CCN(CC)c1ccc2cc(/C=C/c3ccc4cc(F)c(N5CCN(C)CC5)cc4[n+]3C)c(=O)oc2c1`, the IC50 at 24 h in [6] and in series [8] was greater than 40 µM throughout. The inhibition entry in series [7] and in series [9] was “Active” throughout. The IC50 in the series with MIA PaCa-2 [2] was 10.8 µM; in the series with SW-620, 18.6 µM; in the series with U-87 MG it was greater than 40 µM; with HCT-116, 19.1 µM; in the series on NCI-H358, 11.9 µM; in the series on HPAF-II, 32.1 µM. The IC50 in the series with PANC-1 is 14.7 µM; in the series with NCM460, greater than 40 µM; in [3], greater than 40 µM.

In the case of `CCN(CC)c1ccc2cc(/C=C/c3ccc4cc(F)c(N5CCN(Cc6cn(CCCN7CCCCC7)nn6)CC5)cc4[n+]3C)c(=O)oc2c1`, the IC50 in the series with MIA PaCa-2 [2] is 26.8 µM; in the series on PANC-1, greater than 40 µM; in the series on NCM460, greater than 40 µM; in [3], greater than 40 µM.

With `CCN(CC)c1ccc2cc(/C=C/c3ccc4cc(F)c(Nc5ccc6nc(C)[nH]c6c5)cc4[n+]3C)c(=O)oc2c1`, the IC50 in the series with MIA PaCa-2 [2] is 12 µM; in the series with PANC-1, 13 µM; with NCM460 it was 14.8 µM; in [3], greater than 40 µM.

On to `CCN(CC)c1ccc2cc(/C=C/c3ccc4cc(F)c(N5CCCCC5)cc4[n+]3C)c(=O)oc2c1`, for which the IC50 with MIA PaCa-2 [2] is 11.4 µM; in the series with PANC-1 it was 20.6 µM; in the series on NCM460 it was greater than 40 µM; in series [3], greater than 40 µM.

For `CCN(CC)c1ccc2cc(/C=C/c3ccc4cc(F)c(NCCc5cccs5)cc4[n+]3C)c(=O)oc2c1`, the IC50 was less than 1.3 µM with MIA PaCa-2 [2], less than 1.3 µM with PANC-1, 4.4 µM with NCM460 and less than 1.3 µM in series [3].
